Target: human TRPA1 (Homo sapiens (Human), UniProt O75762)
Assay: FLIPR assay of inhibitory activity on human TRPA1 (calcium ion flux fluorescence)
Format: cell-based
Conditions: HEK293 cells stably expressing human TRPA1
Method: 1. FLIPR Assay of Inhibitory Activity on Human TRPA1
A calcium ion flux fluorescence method (FLIPR assay) was adopted to measure the inhibitory activity of compounds on human TRPA1 channel. The literature reports of Lee and Chen et al. may be referred to for the method [Lee et al. Br J Pharmacol 2008, 153 (8): 1739-1749] [Chen et al. Pain 2011, 152(5):1165-72].
A HEK293 recombinant cell strain stably expressing human TRPA1 (Creative Biogene, NY) was cultured in DMEM (Thermo Fisher Scientific, Shanghai) medium (containing 10% calf serum, 5 μg/ml Blasticidin and 400 ug/ml G418). The incubator was under a condition of 37° C. and air humidity with 5% CO2.
TRPA1 cells were seeded in a 96-well analysis plate at a density of 75,000 cells per well (100 ul/well), and cultured overnight in an incubator at 37° C. and 5% CO2. On the second day, incubation was continued overnight under the same condition to induce the expression of TRPA1 after the culture medium in each well was poured out and a fresh supplement with the same culture medium containing 0.1 μg/ml Tetracycline was added. The further next day, the culture medium was pour out, a DMEM culture solution (also containing 2.5 mM Probenicid) containing 5 μM Fluo-4 AM (Molecular Probes) was added to each well, and incubation was conducted at 37° C. for 1 hour.
The compound was dissolved in 100% DMSO to prepare a 30 mM stock solution which was stored at −20° C. On the day of use, the compound stock solution was thawed at room temperature. Each compound was subjected to 1:5 serial dilution using DMSO medium at a starting concentration of 30 μM with 9 concentration points on a 96-well plate. Each compound was diluted in duplicate for testing. Ruthenium Red was used as the positive control compound and the same dilution was carried out at a starting concentration of 3 μM.
The cell analysis plate was placed in an FLIPR instrument […], and the compound in the compound plate was added to the corresponding hole on the cell analysis plate (First addition) via an automatic program, and the calcium ion fluorescence signal was recorded to determine whether the compound had agonistic activity. After 10 minutes, CaCl2 (Second addition) was added a final concentration of 3 mM to each well to stimulate intracellular calcium flux signals. Ca^++-dependent fluorescence signal was monitored continuously at 538 nm wavelength to analyze the inhibitory activity of the compounds.
The data was collected and analyzed using a FLIPR program. The fluorescence peak value was used to evaluate the inhibitory (or agonistic) activity of the compounds at each concentration. EXCEL and PRISM programs were used to calculate the IC50 value of the compounds.

Sequence of human TRPA1 (O75762 whole entry): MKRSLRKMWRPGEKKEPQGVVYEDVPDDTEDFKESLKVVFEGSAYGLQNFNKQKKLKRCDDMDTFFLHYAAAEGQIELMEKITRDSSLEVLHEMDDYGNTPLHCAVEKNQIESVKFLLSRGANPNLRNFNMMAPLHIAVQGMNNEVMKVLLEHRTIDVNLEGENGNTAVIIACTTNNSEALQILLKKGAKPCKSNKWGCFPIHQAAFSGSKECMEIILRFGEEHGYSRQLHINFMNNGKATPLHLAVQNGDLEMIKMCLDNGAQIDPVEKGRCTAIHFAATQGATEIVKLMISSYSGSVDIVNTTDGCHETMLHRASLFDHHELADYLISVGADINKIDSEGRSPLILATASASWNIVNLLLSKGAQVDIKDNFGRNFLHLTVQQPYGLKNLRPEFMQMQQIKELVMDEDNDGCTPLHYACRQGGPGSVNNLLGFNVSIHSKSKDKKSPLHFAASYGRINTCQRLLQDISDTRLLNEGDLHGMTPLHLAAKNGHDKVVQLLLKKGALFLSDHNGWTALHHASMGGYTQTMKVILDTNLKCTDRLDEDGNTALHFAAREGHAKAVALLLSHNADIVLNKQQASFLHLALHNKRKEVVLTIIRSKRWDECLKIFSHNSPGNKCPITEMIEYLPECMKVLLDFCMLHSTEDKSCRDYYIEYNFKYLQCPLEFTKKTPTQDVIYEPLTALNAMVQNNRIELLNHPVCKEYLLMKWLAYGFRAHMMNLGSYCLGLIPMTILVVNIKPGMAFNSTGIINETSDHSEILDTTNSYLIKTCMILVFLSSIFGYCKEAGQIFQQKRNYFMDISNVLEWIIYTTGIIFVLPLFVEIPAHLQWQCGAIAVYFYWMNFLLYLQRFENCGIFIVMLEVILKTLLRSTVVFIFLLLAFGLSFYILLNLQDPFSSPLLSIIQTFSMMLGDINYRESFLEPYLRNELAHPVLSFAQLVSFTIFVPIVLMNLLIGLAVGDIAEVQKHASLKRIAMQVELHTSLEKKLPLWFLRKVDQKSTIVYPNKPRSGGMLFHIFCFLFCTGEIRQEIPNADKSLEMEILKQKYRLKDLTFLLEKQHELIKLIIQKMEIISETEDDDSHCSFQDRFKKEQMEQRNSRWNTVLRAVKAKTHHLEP

IC50 | Compound
105 nM | N#Cc1ccc(NC2(C(=O)N3CCN(c4cccc(C(F)(F)F)c4)CC3)CCCC2)cc1 [Compound 2, 4-((1-(4-(3-(trifluoromethyl)phenyl)piperazine-1-carbonyl)cyclopentyl)amino)benzo-nitrile]
1580 nM | N#Cc1ccc(NC2(C(=O)N3CCN(c4ccccc4C(F)(F)F)CC3)CCCC2)cc1 [Compound 3, 4-((1-(4-(2-(trifluoromethyl)phenyl)piperazine-1-carbonyl)cyclopentyl)amino)benzo-nitrile]
152 nM | N#Cc1ccc(NC2(C(=O)N3CCN(c4ccccc4OC(F)(F)F)CC3)CCCC2)cc1 [Compound 4, 4-((1-(4-(2-(trifluoromethoxy)phenyl)piperazine-1-carbonyl)cyclopentyl)amino)benzo-nitrile]
129 nM | N#Cc1ccc(NC2(C(=O)N3CCN(c4ccc(OC(F)(F)F)cc4)CC3)CCCC2)cc1 [Compound 5]
35 nM | COc1cc(Cl)ccc1N1CCN(C(=O)C2(Nc3ccc(C#N)cc3)CCCC2)CC1 [Compound 6, 4-((1-(4-(4-chloro-2-methoxyphenyl)piperazine-1-carbonyl)cyclopentyl)amino)benzo-nitrile]
64 nM | Cc1cccc(N2CCN(C(=O)C3(Nc4ccc(C#N)cc4)CCCC3)CC2)c1 [Compound 7]
568 nM | CCC(CC)(Nc1ccc(C#N)cc1)C(=O)N1CCN(c2cccc(C(F)(F)F)c2)CC1 [Compound 8]
32 nM | N#Cc1ccc(NC2(C(=O)N3CCN(c4ccc(C(F)(F)F)cn4)CC3)CCCC2)cc1 [Compound 10, 4-((1-(4-(5-(trifluoromethyl)pyridin-2-yl)piperazine-1-carbonyl)cyclopentyl)amino)benzonitrile]
6230 nM | N#Cc1ccc(NC2(C(=O)N3CCN(c4cccc(C(F)(F)F)n4)CC3)CC2)cc1 [Compound 12, 4-((1-(4-(6-(trifluoromethyl)pyridin-2-yl)piperazine-1-carbonyl)cyclopropyl)amino)ben zonitrile]
378 nM | N#Cc1ccc(NC2(C(=O)N3CCN(c4cccc(C(F)(F)F)n4)CC3)CCC2)cc1 [Compound 13, 4-((1-(4-(6-(trifluoromethyl)pyridin-2-yl)piperazine-1-carbonyl)cyclobutyl)amino)benzo nitrile]
87 nM | CC(C)(C)C(Nc1ccc(C#N)cc1)C(=O)N1CCN(c2cccc(C(F)(F)F)n2)CC1 (stereo not drawn) [Compound 14]
23 nM | Cc1cccc(N2CCN(C(=O)C3(Nc4ccc(C#N)cc4)CCCC3)CC2)n1 [Compound 15, 4-((1-(4-(6-methylpyridin-2-yl)piperazine-1-carbonyl)cyclopentyl)amino)benzonitrile]
8920 nM | CN(C)C(=O)c1ccc(N2CCN(C(=O)C3(Nc4ccc(C#N)cc4)CCCC3)CC2)nc1 [Compound 16, 6-(4-(1-((4-cyano-phenyl)amino)cyclopentane-1-carbonyl)piperazine-1-yl)N, N-dimethylnicotinamide]
18 nM | N#Cc1ccc(NC2(C(=O)N3CCN(c4ncc(C(F)(F)F)cn4)CC3)CCCC2)cc1 [Compound 17, 4-((1-(4-(5-(trifluoromethyl)pyrimidin-2-yl)piperazine-1-carbonyl)cyclopentyl)amino)ben zonitrile]
38 nM | N#Cc1ccc(NC2(C(=O)N3CCN(c4nccc(C(F)(F)F)n4)CC3)CCCC2)cc1 [Compound 18, 4-((1-(4-(4-(trifluoromethyl)pyrimidin-2-yl)piperazine-1-carbonyl)cyclopentyl)amino) benzonitrile]
87 nM | N#Cc1ccc(NC2(C(=O)N3CCN(c4ccc(C(F)(F)F)nn4)CC3)CCCC2)cc1 [Compound 19, 4-((1-(4-(6-(trifluoromethyl)pyridazin-3-yl)piperazine-1-carbonyl)cyclopentyl)amino) benzonitrile]
576 nM | N#Cc1ccc(NC2(C(=O)N3CCN(c4ccc(C(F)(F)F)s4)CC3)CCCC2)cc1 [Compound 24, 4-((1-(4-(5-(trifluoromethyl)thien-2-yl)piperazine-1-carbonyl)cyclopentyl)amino)benzonitrile]
876 nM | N#Cc1ccc(NC2(C(=O)N3CCN(c4ncc(C(F)(F)F)s4)CC3)CCCC2)cc1 [Compound 25, 4-((1-(4-(5-(trifluoromethyl)thiazol-2-yl)piperazine-1-carbonyl)cyclopentyl)amino)benzonitrile]
2830 nM | Cn1ccc(N2CCN(C(=O)C3(Nc4ccc(C#N)cc4)CCCC3)CC2)n1 [Compound 26, 4-((1-(4-(1-methyl-1H-pyrazol-3-yl)piperazine-1-carbonyl)cyclopentyl)amino)benzonitrile]
567 nM | C#Cc1ccc(NC2(C(=O)N3CCN(c4cccc(C(F)(F)F)n4)CC3)CCCC2)cc1 [Compound 27, 4-((1-(4-(6-(trifluoromethyl)pyridin-2-yl)piperazine-1-carbonyl)cyclopentyl)amino)phenylacetylene]
26 nM | N#Cc1ccc(NC2(C(=O)N3CC4CCC3CN4c3cccc(C(F)(F)F)n3)CCCC2)cc1 (stereo not drawn) [Compound 29, 4-((1-(5-(6-(trifluoromethyl)pyridin-2-yl)-2,5-diazabicyclo[2.2.2]octane-2-carbonyl)cyclopentyl)amino)benzonitrile]
54 nM | N#Cc1ccc(NC2(C(=O)N3CCN(CC4CCCC4)CC3)CCCC2)cc1 [Compound 30, 4-((1-(4-(cyclopentanemethyl)piperazine-1-carbonyl)cyclopentyl)amino)benzonitrile]
543 nM | CC(C)CC1CCN(C(=O)C2(Nc3ccc(C#N)cc3)CCCC2)CC1 [Compound 32, 4-((1-(4-(isobutyl)piperidine-1-carbonyl)cyclopentyl)amino)benzonitrile]
92 nM | N#Cc1ccc(NC2(C(=O)N3CCC(C4CCCC4)CC3)CCCC2)cc1 [Compound 33, 4-((1-(4-(cyclopentyl)piperidine-1-carbonyl)cyclopentyl)amino)benzonitrile]
287 nM | N#Cc1ccc(NC2(C(=O)N3CCC4(CCCC4)CC3)CCCC2)cc1 [Compound 34, 4-((1-(8-aza-spiro[4.5]decane-8-carbonyl)cyclopentyl)amino)benzonitrile]
85 nM | N#Cc1ccc(NC2(C(=O)N3CCC(C4CCCCC4)CC3)CCCC2)cc1 [Compound 35, 4-((1-(4-(cyclohexyl)piperidine-1-carbonyl)cyclopentyl)amino)benzonitrile]
1250 nM | C#Cc1ccc(NC2(C(=O)N3CCC(C(C)(C)C)CC3)CCCC2)cc1 [Compound 36, 4-((1-(4-(tert-butyl)piperidine-1-carbonyl)cyclopentyl)amino)phenylacetylene]

Compound | IC50
4-((3-(4-(3-trifluoromethyl) phenyl)piperazine-1-carbonyl) propane-2-yl)amino)benzo- nitrile [Compound 9] | 5670 nM
N#Cc1ccc(NC2(C(=O)N3CCN(c4ccc(C(F)(F)F)nn4)CC3)CCCC2)cc1Cl [Compound 22, 2-chloro-4-((1-(4-(6-(trifluoromethyl)pyridazin-3-yl)piperazine-1-carbonyl)cyclopentyl)amino)benzonitrile] | 765 nM
N#Cc1ccc(NC2(C(=O)N3C[C@H]4CC[C@@H](C3)N4c3cccc(C(F)(F)F)n3)CCCC2)cc1 [Compound 28, 4-((1-(8-(6-(trifluoromethyl)pyridin-2-yl)-3,8-diazabicyclo[3.2.1]octane-3-carbonyl)cyclopentyl)amino)benzonitrile] | 15 nM

Reference: patent US12391660B2, “Heteroaromatic acetamide derivative, and preparation and use thereof” (Hangzhou Westan Pharmaceutical Technology Co., Ltd, priority 2019, dated 2025)
